Where “and” joins values, the source holds several entries; their conditions need not be identical. Identical values can stand only once.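 The compound was tested at five concentrations on cells cultured in 96-well plates, with a 48-hour exposure period. Abbreviation: GI50, concentration required for 50% inhibition of growth. TGI is the concentration that stops growth completely.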
Legend:
Experiment in all cases: DTP human tumour cell line panel, 48 h
SNB-75 CNS = tested on: SNB-75 CNS
A498 renal = tested on: A498 renal
786-0 renal = tested on: 786-0 renal
SK-MEL-5 melanoma = tested on: SK-MEL-5 melanoma
MALME-3M melanoma = tested on: MALME-3M melanoma
UO-31 renal = tested on: UO-31 renal
SK-OV-3 ovarian = tested on: SK-OV-3 ovarian
SK-MEL-2 melanoma = tested on: SK-MEL-2 melanoma
M14 melanoma = tested on: M14 melanoma
K-562 leukemia = tested on: K-562 leukemia

Structure (SMILES) | TGI (SNB-75 CNS) | TGI (A498 renal) | TGI (786-0 renal) | TGI (SK-MEL-5 melanoma) | TGI (MALME-3M melanoma) | GI50 (UO-31 renal) | TGI (UO-31 renal) | TGI (SK-OV-3 ovarian) | TGI (SK-MEL-2 melanoma) | TGI (M14 melanoma) | TGI (K-562 leukemia) | GI50 (SNB-75 CNS) | GI50 (A498 renal) | GI50 (786-0 renal) | GI50 (MALME-3M melanoma) | GI50 (K-562 leukemia) | GI50 (SK-OV-3 ovarian) | GI50 (SK-MEL-2 melanoma) | GI50 (M14 melanoma) | GI50 (SK-MEL-5 melanoma)
CNCCCNc1c2ccccc2nc2cccc([N+](=O)[O-])c12 | 0.0142 µM | 0.00751 µM | 0.0247 µM | 0.00982 µM | 0.00997 µM | 0.0158 µM | 0.0241 µM and 0.0682 µM | 0.0427 µM | 0.00798 µM | 0.00846 µM |  |  |  |  |  |  |  |  |  | 
O=C(NCc1ccc2ccc3cccnc3c2n1)c1ccc[n+](Cc2ccccc2)c1 | > 100 µM |  | > 100 µM | > 100 µM | > 100 µM |  | > 100 µM | > 100 µM | > 100 µM | > 100 µM | > 100 µM |  |  |  |  |  |  |  |  | 
CC12OC(C(=O)C13CCC3)C1C(=O)c3ccc4c(ccc5ccccc54)c3C(=O)C12 (configuration not stated) | 37.7 µM | 29.6 µM | 8.82 µM |  | 17.2 µM | 25.7 µM | > 100 µM | 80.5 µM | > 100 µM | 45.4 µM | 16 µM | 18.1 µM | 8.74 µM | 3.65 µM | 4.2 µM | 3.27 µM | 26.5 µM | 19.4 µM | 14.5 µM | 
O=C(/C(=N/Nc1ccccc1)c1ccc([N+](=O)[O-])cc1)c1ccc([N+](=O)[O-])cc1 | > 100 µM |  | > 100 µM | > 100 µM | > 100 µM |  | > 100 µM | > 100 µM | > 100 µM | > 100 µM | > 100 µM |  |  |  |  |  |  |  |  | 
COc1cc2c(c(OC)c1OC)-c1ccc(SC)c(=O)cc1C(CC(=O)Oc1cccc(F)c1)C2 (configuration not stated) |  |  | > 100 µM | > 55.8 µM | > 100 µM |  | > 100 µM | 16.1 µM | 9.57 µM |  | > 52.4 µM |  |  |  |  |  |  |  |  | 
COc1cc(-c2cc3ncccc3c3[nH]c(=O)c4cccnc4c23)cc(OC)c1OC | 62.9 µM |  | > 100 µM | 3.17 µM | > 100 µM | 1.09 µM | > 100 µM | > 100 µM | > 100 µM | > 100 µM | > 100 µM | 0.271 µM |  | 0.722 µM | 16.2 µM | 0.392 µM | 1.35 µM | 0.833 µM | 0.425 µM | 0.51 µM
Clc1ccc(OCc2nnc3n2N=C(c2ccccc2)CS3)c(Cl)c1 | 19.6 µM | 76.8 µM | > 100 µM | > 100 µM | > 100 µM |  | 8.46 µM | > 100 µM | > 100 µM |  | > 100 µM |  |  |  |  |  |  |  |  | 
C/C(O)=C(\N=O)C(=O)NCc1ccccc1 | > 100 µM | > 100 µM | > 100 µM | > 100 µM | > 100 µM |  | > 100 µM | > 100 µM | > 100 µM |  | > 100 µM |  |  |  |  |  |  |  |  | 
Nc1nc2c(ccc3ccccc32)s1 | > 100 µM | > 100 µM | > 100 µM | > 100 µM | > 100 µM | 74.3 µM | > 100 µM |  |  | > 100 µM | > 100 µM | 36.8 µM | 74.1 µM | > 100 µM | 61.9 µM | 91.5 µM |  |  | > 100 µM | 72.7 µM
C=Cc1c(C)c2cc3[nH]c(cc4nc(cc5nc(cc1[nH]2)C(C)=C5CCC(=O)N(CC)CC)C(CCC(=O)N(CC)CC)=C4C)c(C)c3C=C | 88.3 µM |  | > 100 µM | > 100 µM | > 100 µM |  | > 100 µM | > 100 µM | > 100 µM | > 100 µM | > 100 µM |  |  |  |  |  |  |  |  | 
C[C@H](NC(=O)c1c(C(F)F)nn(C)c1Oc1cccc(C(F)(F)F)c1)c1ccc(C(=O)O)cc1 | > 100 µM | > 100 µM | > 100 µM | > 100 µM | > 100 µM | > 100 µM | > 100 µM | > 100 µM | > 100 µM | > 100 µM |  | > 100 µM | > 100 µM | > 100 µM | > 100 µM |  | > 100 µM | > 100 µM | > 100 µM | > 100 µM
C=C(CO)CC(/C=C(\C)CC/C=C(\C)CCl)OC(C)=O (configuration not stated) | > 100 µM | > 100 µM | > 100 µM | > 100 µM |  |  | > 100 µM | > 100 µM | > 100 µM | > 100 µM | > 100 µM |  |  |  |  |  |  |  |  | 
COC(=O)CC(C(C(C)=O)C(=O)OCc1ccccc1)N1C(=O)OC(c2ccccc2)C1c1ccccc1 (configuration not stated) |  |  | > 100 µM | > 100 µM | > 100 µM |  |  | > 100 µM | > 100 µM |  | > 100 µM |  |  |  |  |  |  |  |  | 
O=C([CH-]C(=O)c1ccccc1)c1ccccc1.O=C([CH-]C(=O)c1ccccc1)c1ccccc1.O=C([CH-]C(=O)c1ccccc1)c1ccccc1.[Cl-].[Zr+4] | 30.1 µM | 58.6 µM | 70.3 µM | 60.6 µM | 60.4 µM |  |  | 74.5 µM | 41.2 µM | 39 µM | 25.5 µM | 3.34 µM | 18.7 µM | 18.6 µM | 19.5 µM | 8.02 µM | 37.8 µM | 10 µM | 12.6 µM | 22.9 µM
COc1cc(-c2nccc3cc4c(cc23)OCO4)cc(OC)c1OC | 79.7 µM | 15.2 µM | > 100 µM | > 100 µM | > 100 µM | 6.99 µM | > 100 µM | > 100 µM | > 100 µM | 23.2 µM |  | 2.45 µM | 2.55 µM | 7.65 µM | 26.9 µM |  | 4.48 µM | 3.08 µM | 3.36 µM | 3.16 µM
CCC[CH2][Sn]([CH2]CCC)([CH2]CCC)[O]C(=O)C(OC)c1ccccc1 (configuration not stated) | 0.513 µM | 0.263 µM | 0.288 µM | 0.262 µM | 0.234 µM | 0.113 µM | 0.234 µM | 0.246 µM |  | 0.263 µM |  | 0.0824 µM | 0.123 µM | 0.142 µM | 0.112 µM |  | 0.122 µM |  | 0.133 µM | 0.133 µM
COc1cc2nc(-c3cccc4cccnc34)nc(NC3CCN(Cc4ccccc4)CC3)c2cc1OC | 3.56 µM | 3.39 µM | 2.69 µM | 3.18 µM | 3.51 µM | 1.43 µM | 2.88 µM | 3.22 µM | 3.53 µM | 3.4 µM |  | 1.84 µM | 1.83 µM | 1.2 µM | 1.83 µM |  | 1.56 µM | 1.68 µM | 1.52 µM | 1.66 µM

— PubChem BioAssay (NCI)
